Read-outs that look alike come from different tables or passages of the source.
Legend:
KOR [1] = format: cell-based, murine
MOR [2] = format: cell-based, murine
MOR [3] = format: cell-based, murine; remark: listed apart in the source
KOR [4] = format: cell-based, murine; remark: listed apart in the source
KOR [5] = format: cell-based, murine; remark: listed apart in the source
KOR [6] = format: cell-based, murine; remark: listed apart in the source
KOR [7] = assay: mGs probe recruitment to KOR (TIR-FM); format: cell-based, murine; conditions: DynA 1 nM - 10 μM; Venus-mGs, HEK293, TIR-FM
Protocol: Live cell image series measuring protein recruitment to the plasma membrane were performed at 37°C using a Nikon Ti-E microscope equipped for through-the-objective TIR-FM with a temperature-, humidity- and CO2-controlled chamber (Okolab), objective heater, perfect focus system, and an Andor DU897 EMCCD camera. Images were obtained with a 100 × 1.49 NA Apo TIRF objective (Nikon) with solid-state lasers of 488, 561 and 647 nm (Keysight Technologies). Before imaging, receptors at the cell surface were labelled with M1 monoclonal FLAG antibody (1:1,000) conjugated to Alexa647 dye for 10 min at 37°C. Cells were then washed and live imaged in HBS imaging solution (Hepes buffered saline (HBS) with 135 mM NaCl, 5 mM KCl, 0.4 mM MgCl2,1.8 mM CaCl2, 20 mM Hepes, 5 mM d-glucose adjusted to pH 7.4 and 300–315 mOsmol/l). Agonists or antagonists were either added by bath application at concentrations indicated in the figure legends or by media perfusion. For the latter, an insert was 3D-printed and placed inside the imaging dish where it left a dead volume of about 300 μL. […]
For probing protein recruitment to the plasma membrane, HEK293 cells co-expressing the cytosolic protein of interest (mGsi, Nb33, or GRK2) and MOR or KOR were imaged using TIR-FM. […] Protein intensity during time lapse series was measured using ImageJ. […]

KOR [8] = format: cell-based, murine; remark: listed apart in the source
[9] = target: signal sequence FLAG (ssf)-KOR, murine (kappa opioid receptor) (murine) (UniProt P33534); assay: TIR-FM recruitment of a fluorescent cytosolic protein to the plasma membrane of living cells; HEK293 cells co-expressing the fluorescent cytosolic protein and the receptor; 37 C, HBS imaging solution pH 7.4; agonists added in rising concentrations (1 nM - 10 uM) by bath application or perfusion: DynA, U69, U50, etorphine for KOR; DAMGO, etorphine, morphine, PZM21, MP for MOR; reversed by the antagonists 5'GNTI or naloxone; also with Cmpd101 (30 uM)
Chain of UniProt P33534 (P33534 whole entry, the tested form may be a part): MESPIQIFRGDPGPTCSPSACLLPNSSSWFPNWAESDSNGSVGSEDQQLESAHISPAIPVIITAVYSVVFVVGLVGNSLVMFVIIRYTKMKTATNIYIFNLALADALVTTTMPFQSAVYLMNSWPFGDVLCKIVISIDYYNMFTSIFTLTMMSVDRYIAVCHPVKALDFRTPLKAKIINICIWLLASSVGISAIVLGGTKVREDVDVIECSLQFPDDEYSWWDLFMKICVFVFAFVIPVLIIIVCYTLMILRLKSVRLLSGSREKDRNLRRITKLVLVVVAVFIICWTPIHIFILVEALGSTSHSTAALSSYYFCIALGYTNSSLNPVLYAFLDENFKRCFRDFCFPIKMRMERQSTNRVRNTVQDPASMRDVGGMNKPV

Cl.Cl.NC(N)=Nc1ccc2[nH]c3c(c2c1)C[C@@]1(O)[C@H]2Cc4ccc(O)c5c4[C@@]1(CCN2CC1CC1)[C@H]3O5 [5’GNTI, GNTI dihydrochloride]
reversal of DynA-induced mGsi recruitment by KOR antagonist (KOR [1]): rapid redistribution of the biosensor back to the cytoplasm

CC[C@@H]1CN2CC[C@]3(Nc4cccc(OC)c4C3=O)[C@@H]2C[C@@H]1/C(=C\OC)C(=O)OC [MP, mitragynine pseudoindoxyl]
mGsi/Nb33, ratio of intrinsic activities (MOR [2]): 7.47
I.A.(mGsi), intrinsic activity (maximal response) (MOR [2]; SEM): 0.31±0.02
Nb33 recruitment by MOR (in words) (MOR [3]): without promoting detectable recruitment
I.A.(Nb33), intrinsic activity (maximal response) (MOR [3]; SEM): 0.04±0.05

C[C@@H](Cc1ccsc1)NC(=O)NC[C@H](Cc1ccc(O)cc1)N(C)C [PZM21]
mGsi/Nb33, ratio of intrinsic activities (MOR [2]): 2.60
I.A.(mGsi), intrinsic activity (maximal response) (MOR [2]; SEM): 0.70±0.02
I.A.(Nb33), intrinsic activity (maximal response) (MOR [3]; SEM): 0.27±0.05

DAMGO, [D-Ala2, N-Me-Phe4, Gly5-ol]-Enkephalin acetate salt
I.A.(mGsi), intrinsic activity (maximal response) (MOR [2]): 1.00
mGsi/Nb33, ratio of intrinsic activities (MOR [2]): 1
I.A.(Nb33), intrinsic activity (maximal response) (MOR [3]): 1.00

Dynorphin A (1–17, DynA)
I.A.(mGsi), intrinsic activity (maximal response) (KOR [1]): 1.00
mGsi/Nb33, ratio of intrinsic activities (KOR [1]): 1
I.A.(Nb33), intrinsic activity (maximal response) (KOR [4]): 1.00
GRK2 recruitment in cells pre-exposed to pertussis toxin (KOR [5]): significant recruitment response
GRK2 accumulation at KOR-containing clusters (in words) (KOR [6]): specifically accumulated at the KOR-containing clusters
mGs recruitment in response to KOR activation (KOR [7]): not detectably recruited
recruitment of isolated C-terminal PH domain from GRK2 (GRK2-C-tail) (KOR [8]): similarly strong recruitment

NES-Venus-mGsi (mini-G protein: Ras-like domain of Gs alpha with nine distal C-terminal residues from Gi alpha1) (designed binder)
maximum recruitment with etorphine, percent of that with DynA [9]: 67%

— paper PMC7041944 (eLife, 2020)
